Laboratory results from patent EP4685149A1, “NOVEL COMPOUND AS ENDOTHELIAL TO MESENCHYMAL TRANSITION (ENDMT) INHIBITOR, AND PHARMACEUTICAL COMPOSITION COMPRISING SAME” (Korea Institute of Radiological & Medical Sciences, priority 2023, dated 2024).
Read-outs that look alike come from different tables or passages of the source.

Tested on: human vascular endothelial cell lines
Experiment: Inhibition of radiation-induced endothelial cell transition (EndMT), phalloidin immunofluorescence staining
Type: cell-based
Details: 10 uM test substance 1 hour before 10 Gy irradiation, 72 hours after irradiation, relative ratio with IR group (10 Gy alone) as 100%; for activity at 10 µM: Homo sapiens, Endothelial cell, light or radiation study
Method: Test substances (Examples 1 to 45) were treated with a 10 mM DMSO solution at a ratio of 1 µL per 1 mL of cell culture medium to a final concentration of 10 uM, and the test substances were treated 1 hour before irradiation on human vascular endothelial cell lines (Promocell, Germany), and then, it was irradiated at an intensity of 10 Gy. 72 hours after irradiation, the human vascular endothelial cell lines were fixed with 10% formalin, and the experiment was conducted according to the manufacturer's method using phalloidin (Invitrogen, USA) to confirm the cytoskeleton filaments that increase during fibrosis. Phalloidin is a protein that binds to the actin of cytoskeleton filaments, and phalloidin conjugated with FITC fluorescent substance made the cytoskeleton filaments appear green when observed under a microscope.
After treatment with the test substance, the area, length and density of phalloidin were measured by using a confocal microscope, and the relative ratio was expressed with the irradiated group (IR group) that was irradiated with 10 Gy alone as 100% (Table 1).

SMILES | activity at 10 µM (read-out: Palloidin Area) [%] | activity at 10 µM (read-out: Palloidin Intensity) [%] | activity at 10 µM (read-out: Palloidin Length) [%] | Palloidin Length
O[C@@H]1[C@H](O)CS[C@H]1n1cnc2c(N[C@@H]3Cc4ccccc43)nc(Cl)nc21 [Example 41, (2R,3R,4S)-2-(6-(((R)-bicyclo[4.2.0]octa-1(6),2,4-trien-7-yl)amino)-2-chloro-9H-purin-9-yl)tetrahydrothiophene-3,4-diol] | > 80 | 50 to 80 | > 80 | –
O[C@@H]1[C@H](O)CS[C@H]1n1cnc2c(N[C@H]3CCc4ccccc4C3)nc(Cl)nc21 [Example 36, (2R,3R,4S)-2-(2-chloro-6-(((S)-1,2,3,4-tetrahydronaphthalen-2-yl)amino)-9H-purin-9-yl)tetrahydrothiophene-3,4-diol] | > 80 | > 80 | > 80 | –
O[C@@H]1[C@H](O)CS[C@H]1n1cnc2c(N[C@@H]3CCc4c(Cl)cccc43)nc(Cl)nc21 [Example 17, (2R,3R,4S)-2-[2-chloro-6-[[(1R)-4-chloroindan-1-yl]amino]purin-9-yl]tetrahydrothiophene-3,4-diol] | < 20 | < 20 | < 20 | –
O[C@@H]1[C@H](O)CS[C@H]1n1cnc2c(N[C@@H]3CCc4ccccc43)ncnc21 [Example 45, (2R,3R,4S)-2-(6-(((R)-2,3-dihydro-1H-inden-1-yl)amino)-9H-purin-9-yl)tetrahydrothiophene-3,4-diol] | > 80 | > 80 | > 80 | –
NC(=O)c1ccc2c(c1)CC[C@H]2Nc1nc(Cl)nc2c1ncn2[C@@H]1SC[C@@H](O)[C@H]1O [Example 34, (R)-1-((2-chloro-9-((2R,3R,4S)-3,4-dihydroxytetrahydrothiophen-2-yl)-9H-purin-6-yl)amino)-2,3-dihydro-1H-indene-5-carboxamide] | > 80 | > 80 | – | + +
COC(=O)c1cccc2c1CC[C@H]2Nc1nc(Cl)nc2c1ncn2[C@@H]1SC[C@@H](O)[C@H]1O [Example 30, Methyl (R)-1-((2-chloro-9-((2R,3R,4S)-3,4-dihydroxytetrahydrothiophen-2-yl)-9H-purin-6-yl)amino)-2,3-dihydro-1H-indene-4-carboxylate] | > 80 | > 80 | > 80 | –
O[C@@H]1[C@H](O)CS[C@H]1n1cnc2c(N[C@@H]3CCc4c3cccc4C(F)(F)F)nc(Cl)nc21 [Example 23, (2R,3R,4S)-2-[2-chloro-6-[[(1R)-4-(trifluoromethyl)indan-1-yl]amino]purin-9-yl]tetrahydrothiophene-3,4-diol] | > 80 | > 80 | > 80 | –
O[C@@H]1[C@H](O)CS[C@H]1n1cnc2c(N[C@@H]3CCc4cc(Br)ccc43)nc(Cl)nc21 [Example 20, (2R,3R,4S)-2-[2-chloro-6-[[(1R)-5-bromoindan-1-yl]amino]purin-9-yl]tetrahydrothiophene-3,4-diol] | < 20 | 20 to 50 | < 20 | –
N#Cc1ccc2c(c1)CC[C@H]2Nc1nc(Cl)nc2c1ncn2[C@@H]1SC[C@@H](O)[C@H]1O [Example 29, (1R)-1-[[2-chloro-9-[(2R,3R,4S)-3,4-dihydroxytetrahydrothiophen-2-yl]purin-6-yl]amino]indane-5-carbonitrile] | 50 to 80 | 50 to 80 | > 80 | –
NC(=O)c1cccc2c1CC[C@H]2Nc1nc(Cl)nc2c1ncn2[C@@H]1SC[C@@H](O)[C@H]1O [Example 25, (R)-1-((2-chloro-9-((2R,3R,4S)-3,4-dihydroxytetrahydrothiophen-2-yl)-9H-purin-6-yl)amino)-2,3-dihydro-1H-indene-4-carboxamide] | > 80 | > 80 | > 80 | –
O[C@@H]1[C@H](O)CS[C@H]1n1cnc2c(NC3CCc4ccccc43)nc(Cl)nc21 (stereo partly drawn) [Example 8, (2R,3R,4S)-2-[2-chloro-6-(indan-1-ylamino)purin-9-yl]tetrahydrothiophene-3,4-diol] | 20 to 50 | 20 to 50 | 20 to 50 | –
O[C@@H]1[C@H](O)CS[C@H]1n1cnc2c(N[C@@H]3CCc4cc(Cl)ccc43)nc(Cl)nc21 [Example 18, (2R,3R,4S)-2-[2-chloro-6-[[(1R)-5-chloroindan-1-yl]amino]purin-9-yl]tetrahydrothiophene-3,4-diol] | < 20 | < 20 | < 20 | –
O[C@@H]1[C@H](O)CS[C@H]1n1cnc2c(NC3CCCCc4ccccc43)nc(Cl)nc21 (stereo partly drawn) [Example 42, (2R,3R,4S)-2-(2-chloro-6-((6,7,8,9-tetrahydro-5H-benzo[7]annulen-5-yl)amino)-9H-purin-9-yl)tetrahydrothiophene-3,4-diol] | > 80 | > 80 | > 80 | –
O[C@@H]1[C@H](O)CS[C@H]1n1cnc2c(N[C@@H]3CCc4ccccc43)nc(I)nc21 [Example 44, (2R,3R,4S)-2-(6-(((R)-2,3-dihydro-1H-inden-1-yl)amino)-2-iodo-9H-purin-9-yl)tetrahydrothiophene-3,4-diol] | 20 to 50 | 20 to 50 | 20 to 50 | –
COc1ccc2c(c1)CC[C@H]2Nc1nc(Cl)nc2c1ncn2[C@@H]1SC[C@@H](O)[C@H]1O [Example 12, (2R,3R,4S)-2-[2-chloro-6-[[(1R)-5-methoxyindan-1-yl]amino]purin-9-yl]tetrahydrothiophene-3,4-diol] | > 80 | > 80 | > 80 | –
O[C@@H]1[C@H](O)CS[C@H]1n1cnc2c(N[C@@H]3CCc4c(Br)cccc43)nc(Cl)nc21 [Example 19, (2R,3R,4S)-2-[2-chloro-6-[[(1R)-4-bromoindan-1-yl]amino]purin-9-yl]tetrahydrothiophene-3,4-diol] | 20 to 50 | 20 to 50 | 20 to 50 | –
O[C@@H]1[C@H](O)CS[C@H]1n1cnc2c(N[C@@H]3CCc4cccc(Br)c43)nc(Cl)nc21 [Example 26, (2R,3R,4S)-2-[2-chloro-6-[[(1R)-7-bromoindan-1-yl]amino]purin-9-yl]tetrahydrothiophene-3,4-diol] | 20 to 50 | 50 to 80 | 50 to 80 | –
O=C(O)c1cccc2c1CC[C@H]2Nc1nc(Cl)nc2c1ncn2[C@@H]1SC[C@@H](O)[C@H]1O [Example 32, (R)-1-((2-chloro-9-((2R,3R,4S)-3,4-dihydroxytetrahydrothiophen-2-yl)-9H-purin-6-yl)amino)-2,3-dihydro-1H-indene-4-carboxylic acid] | > 80 | > 80 | > 80 | –
Cc1ccc2c(c1)CC[C@H]2Nc1nc(Cl)nc2c1ncn2[C@@H]1SC[C@@H](O)[C@H]1O [Example 27, (2R,3R,4S)-2-[2-chloro-6-[[(1R)-5-methylindan-1-yl]amino]purin-9-yl]tetrahydrothiophene-3,4-diol] | > 80 | > 80 | > 80 | –
Cc1cccc2c1CC[C@H]2Nc1nc(Cl)nc2c1ncn2[C@@H]1SC[C@@H](O)[C@H]1O [Example 22, (2R,3R,4S)-2-[2-chloro-6-[[(1R)-4-methylindan-1-yl]amino]purin-9-yl]tetrahydrothiophene-3,4-diol] | < 20 | < 20 | – | + + + +
O[C@@H]1[C@H](O)CS[C@H]1n1cnc2c(N[C@@H]3CCc4ccc(Br)cc43)nc(Cl)nc21 [Example 21, (2R,3R,4S)-2-[2-chloro-6-[[(1R)-6-bromoindan-1-yl]amino]purin-9-yl]tetrahydrothiophene-3,4-diol] | 20 to 50 | 20 to 50 | 20 to 50 | –
CCCC#Cc1nc(N[C@@H]2CCc3ccccc32)c2ncn([C@@H]3SC[C@@H](O)[C@H]3O)c2n1 [Example 5, (2R,3R,4S)-2-[6-[[(1R)-indan-1-yl]amino]-2-pent-1-ynyl-purin-9-yl]tetrahydrothiophene-3,4-diol] | 50 to 80 | 50 to 80 | 50 to 80 | –
O=C(O)c1ccc2c(c1)CC[C@H]2Nc1nc(Cl)nc2c1ncn2[C@@H]1SC[C@@H](O)[C@H]1O [Example 33, (R)-1-((2-chloro-9-((2R,3R,4S)-3,4-dihydroxytetrahydrothiophen-2-yl)-9H-purin-6-yl)amino)-2,3-dihydro-1H-indene-5-carboxylic acid] | > 80 | > 80 | > 80 | –
O[C@@H]1[C@H](O)CS[C@H]1n1cnc2c(N[C@@H]3CCc4cc(F)ccc43)nc(Cl)nc21 [Example 16, (2R,3R,4S)-2-[2-chloro-6-[[(1R)-5-fluoroindan-1-yl]amino]purin-9-yl]tetrahydrothiophene-3,4-diol] | < 20 | < 20 | < 20 | –
